Test results from patent publication US20240002326A1, “COMPOUNDS AND USE THEREOF IN METHODS OF TREATMENT” (The University of Queensland, priority 2016, published 2024).

How the values were obtained:
mouse SOX18-HMG (109aa) = mouse SOX18-HMG (109aa) (Mus musculus (Mouse), UniProt P43680); assay: Direct protein binding assay (thermal aggregation, static light scattering); conditions: 500 μM for Sm4 and Sm14, 1.5 mM for Sm5
ovine COX1 = ovine COX1 (Ovis aries (Sheep), UniProt P05979); assay: COX1 enzymatic assay; format: biochemical; conditions: up to a concentration of 200 μM
Sequence of ovine COX1 (P05979 25-600): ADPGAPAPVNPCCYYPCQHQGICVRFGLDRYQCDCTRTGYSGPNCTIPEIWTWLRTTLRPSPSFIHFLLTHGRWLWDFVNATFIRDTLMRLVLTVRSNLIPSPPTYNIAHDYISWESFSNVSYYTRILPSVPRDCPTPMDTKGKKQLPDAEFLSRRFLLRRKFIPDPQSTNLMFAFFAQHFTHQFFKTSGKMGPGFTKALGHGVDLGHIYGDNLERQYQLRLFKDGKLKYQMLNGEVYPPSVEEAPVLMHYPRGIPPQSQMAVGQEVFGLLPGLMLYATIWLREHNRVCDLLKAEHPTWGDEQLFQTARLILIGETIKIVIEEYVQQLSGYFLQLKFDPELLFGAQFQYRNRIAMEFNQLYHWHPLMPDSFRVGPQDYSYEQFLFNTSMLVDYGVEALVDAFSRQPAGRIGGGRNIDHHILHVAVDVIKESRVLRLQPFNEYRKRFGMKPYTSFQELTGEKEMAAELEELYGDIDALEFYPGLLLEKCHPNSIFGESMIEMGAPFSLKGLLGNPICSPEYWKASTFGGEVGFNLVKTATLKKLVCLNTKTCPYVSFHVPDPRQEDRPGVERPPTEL
Procedure: COX inhibition activity was measured using COX1 and COX2 inhibitor screening assay kits from Cayman Chemical Company (Ref #701090 and 701080). All compounds were tested in quadruplicate at a single 200 μM concentration in 2% v/v final DMSO. Compounds were preincubated with ovine COX1 or human COX2 at 37° C. for 10 min before incubation with COX substrate arachidonic acid for another 3 min. Reactions were stopped by addition of concentrated hydrochloric acid. Prostanoid standard curve was prepared and enzyme immunoassay performed as per manufacturer's description. […] Prostanoid standards values were plotted as logit (B/B0) versus log concentrations and fitted with linear regression using GraphPad Prism version 6.0. Standard curve linear fit was used to calculate each samples concentrations.

scrambled DNA = assay: Direct DNA-binding assay (SPR), scrambled DNA; conditions: biotinylated double-strand DNA on streptavidin chip
Procedure: Compounds were tested at a 1% v/v DMSO in HBS-EP buffer (10 mM HEPES, 150 mM NaCl, 3 mM EDTA, 0.005% v/v polysorbate 20, pH 7.4). The same buffer supplemented with 1% v/v DMSO was used as a mobile phase. DNA minor groove binder DAPI (4′,6-diamidino-2-phenylindole), DNA intercalator and minor groove binder actinomycin D, and DNA intercalator ethidium bromide were used as positive controls. Biotinylated (one tag per probe) double strand DNA probes were prepared using a standard annealing routine (5 min at 100° C., room temperature overnight and stored at −20° C.) of single strand anti-parallel DNA Probes purchased from Geneworks and were immobilized on CM5-SA streptavidin chips as per manufacturer's recommendations. […] All sample and control cycles were performed in triplicate. DMSO calibration was performed as per manufacturer's recommendations. After each injection, an extra flow system wash was performed with 50% v/v DMSO to avoid carryover. Experiments were run on a Biacore T200 (GE Healthcare, USA), with one flow cell kept as a reference.
From a molecular viewpoint, an inhibitor of SOX18-DNA binding could act either by interacting directly with the DNA, or the protein, or at the interface between protein and DNA. Binding of small molecules directly to the DNA, even though reported for other TFs (Leung et al., 2013), has the potential for unspecific DNA binding, leading to possible genotoxicity, mutagenicity, or carcinogenicity. For this reason, we developed a direct binding assays to determine whether the active compounds interact directly with DNA or protein. A surface plasmon resonance-based method was developed to analyse the binding of small molecules to biotinylated double stranded DNA immobilized on the surface of a streptavidin chip. The method measures the rate of binding (kon), dissociation (koff) and binding constant (KD), and was used to measure the binding to two different DNA sequences: SOX binding site consensus DNA, and scrambled DNA. Intercalating agents ethidium bromide and Actinomycin D, and the minor groove-binding agent 4′,6-diamino-2-phenylindole (DAPI) were used as positive controls for unselective DNA binding.

HEK293 = assay: Cytotoxicity assay (Alamar blue), HEK293; format: cell-based; conditions: HEK293, 24 h
In short: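 COS-7 cells in DMEM with 10% FBS; HepG2 and HEK293 in DMEM with 1% FBS. After 24 h plating, serial compound dilutions (0.5% DMSO final) added for 24 h at 37° C. Viability from Alamar blue 5 μM, fluorescence 560/590 nm read after 2 h.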

Sequence of mouse SOX18-HMG (109aa) (P43680 69-177): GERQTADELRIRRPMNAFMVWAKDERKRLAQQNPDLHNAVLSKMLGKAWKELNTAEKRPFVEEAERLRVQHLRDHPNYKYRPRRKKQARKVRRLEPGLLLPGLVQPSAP

Row | Compound | increase in Tagg (mouse SOX18-HMG (109aa)) | COX-1 inhibitory activity (ovine COX1) | binding to scrambled DNA (SPR) (scrambled DNA) | CC50 (HEK293) [µM]
1 | O=C(O)c1c(O)cccc1COCCc1ccccc1 [Sm5] | more than 3 °C | None of the SOX18 inhibitor display any COX-1 or COX-2 inhibitory activity | do not bind | 
2 | CCN(CC)C(=O)c1c(O)cc(O)cc1CCc1ccc2ccccc2c1 [Sm26, N,N,diethyl-2,4-hydroxy-6-(2-(naphthalen-2-yl)ethyl)benzamide] |  |  |  | 23.5
